pIC50: −log10 of the molar value. Where two headings read alike, the source gives them in different places.
Experiments:
[1] = target: Recombinant human MALT-1 (amino acids 340-824) (Homo sapiens (Human), UniProt Q9UDY8); experiment: MALT-1 inhibition assay (fluorogenic substrate Ac-LRSR-Rh110-DP); type: biochemical; details: recombinant human MALT-1, substrate Ac-LRSR-Rh110-DP
Outline: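 MALT-1 at 3 nM final was reacted with 10 μM Ac-LRSR-Rh110-DP, with substrate addition starting the reaction. Incubation ran 60 minutes at 25° C in the dark. Percent inhibition from fluorescence across doses was fitted to a 4-parameter logistic to give IC50.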

[2] = tested on: IL-2 secretion by human effector memory T cells (TEM); experiment: Effector memory T cells IL-2 release assay; type: cell-based; details: human CD4+ effector memory T cells, CD3/CD28 bead stimulation, 24 h, read-out: CD4TC IL2 IC50
Outline: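 Human CD4+ effector memory T cells from healthy-donor buffy coats were stimulated with anti-CD3/CD28 Dynabeads and exposed to 10 semi-log compound doses (0.1% DMSO) for 24 h at 37 °C. Supernatant IL-2 was measured by HTRF, and IC50 came from a 4-parameter logistic fit to maximal IL-2. Viability was checked by flow cytometry.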

Chain of Recombinant human MALT-1 (amino acids 340-824) (Q9UDY8 340-824): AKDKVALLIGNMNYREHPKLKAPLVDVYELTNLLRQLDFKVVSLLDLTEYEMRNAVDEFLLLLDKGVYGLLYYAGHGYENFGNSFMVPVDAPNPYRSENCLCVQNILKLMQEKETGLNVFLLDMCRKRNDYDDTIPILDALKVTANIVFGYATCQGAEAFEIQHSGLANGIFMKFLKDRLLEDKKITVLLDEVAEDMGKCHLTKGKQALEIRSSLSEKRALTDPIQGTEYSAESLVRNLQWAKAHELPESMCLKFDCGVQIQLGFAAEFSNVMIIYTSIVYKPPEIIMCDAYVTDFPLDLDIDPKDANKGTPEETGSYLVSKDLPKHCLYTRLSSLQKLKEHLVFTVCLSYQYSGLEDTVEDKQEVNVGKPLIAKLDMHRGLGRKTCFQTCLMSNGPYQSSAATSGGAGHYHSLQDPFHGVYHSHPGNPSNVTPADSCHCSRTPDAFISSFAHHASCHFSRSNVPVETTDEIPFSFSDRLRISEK

SMILES	pIC50 [1]	pIC50 ([2]; T-cell)	pIC50 [2]
CN(C(=O)[C@H]1CC[S@](=N)(=O)CC1)[C@@H](c1ccc(N2CCCc3c2cnc2cc(Cl)nn32)cc1)C(F)(F)F (relative stereo) [CPD0072529, (1rel-r,4rel-r)-N-[(1S)-1-(4-{4-chloro-2,3,7,10-tetraazatricyclo[7.4.0.0^2,6]trideca-1(9),3,5,7-tetraen-10-yl}phenyl)-2,2,2-trifluoroethyl]-1-imino-N-methyl-1-oxo-1λ^6-thiane-4-carboxamide]	7.59	7.03	–
COCC(=O)N1CC[C@H](C(=O)N(C)[C@@H](c2ccc(N3CCCc4c3cnc3cc(Cl)nn43)cc2)C(F)(F)F)C1 (relative stereo) [CPD0075874, (3rel-R)-N-[(1S)-1-[4-(4-chloro-2,3,7,10-tetrazatricyclo[7.4.0.0^2,6]trideca-1(9),3,5,7-tetraen-10-yl)phenyl]-2,2,2-trifluoro-ethyl]-1-(2-methoxyacetyl)-N-methyl-pyrrolidine-3-carboxamide]	7.02	6.64	–
CN(C(=O)CN1CCCS1(=O)=O)[C@@H](c1ccc(N2CCCc3c2cnc2cc(Cl)nn32)cc1)C(F)(F)F [CPD0073085, N-[(1S)-1-(4-{4-chloro-2,3,7,10-tetraazatricyclo[7.4.0.0^2,6]trideca-1(9),3,5,7-tetraen-10-yl}phenyl)-2,2,2-trifluoroethyl]-2-(1,1-dioxo-1λ^6,2-thiazolidin-2-yl)-N-methylacetamide]	6.81	6.54	–
CN1C[C@H](C(=O)N(C)[C@@H](c2ccc(N3CCCc4c3cnc3cc(Cl)nn43)cc2)C(F)(F)F)CC1=O (relative stereo) [CPD0073556, (3rel-R)-N-[(1S)-1-(4-{4-chloro-2,3,7,10-tetraazatricyclo[7.4.0.0^2,6]trideca-1(9),3,5,7-tetraen-10-yl}phenyl)-2,2,2-trifluoroethyl]-N,1-dimethyl-5-oxopyrrolidine-3-carboxamide]	7.10	6.70	–
COc1ccc2ncc(Nc3ccc([C@@H](N(C)C(=O)[C@H]4CC[S@](=N)(=O)CC4)C(F)(F)F)cc3)c([C@H](C)OC)c2n1 (relative stereo) [CPD0077187, (1 rel-s,4rel-s)-1-imino-N-methyl-1-oxo-N-[(1R)-2,2,2-trifluoro-1-[4-({6-methoxy-4-[(1 rel-S)-1-methoxyethyl]-1,5-naphthyridin-3-yl}amino)phenyl]ethyl]-1λ^6-thiane-4-carboxamide]	6.93	6.68	–
CN(C(=O)[C@H]1CC[S@@](=N)(=O)CC1)[C@@H](c1ccc(N2CCC3(CC3)c3c2cnc2cc(F)nn32)cc1)C(F)(F)F (relative stereo) [CPD0072852, (1rel-s,4rel-s)-1-imino-N-methyl-1-oxo-N-[(1S)-2,2,2-trifluoro-1-(4-{4′-fluoro-2′,3′,7′,10′-tetraazaspiro[cyclopropane-1,13′-tricyclo[7.4.0.0^2,6]tridecane]-1′(9′),3′,5′,7′-tetraen-10′-yl}phenyl)ethyl]-1λ^6-thiane-4-carboxamide]	7.55	7.19	–
CN([C@@H](c1ccc(N2CCCc3c2cnc2cc(Cl)nn32)cc1)C(F)(F)F)[S+]([O-])C(C)(C)C (stereo partly drawn) [CPD0021661]	6.52	5.83	–
COC(C)c1c(Nc2ccc([C@H](N(C)C(=O)C3CCS(=O)(=O)CC3)C(F)(F)F)cn2)cnc2ccc(Cl)nc12 (stereo in doubt) [CPD0019501, N-[(1S)-1-[6-({6-chloro-4-[(1 rel S)-1-methoxyethyl]-1,5-naphthyridin-3-yl}amino)pyridin-3-yl]-2,2,2-trifluoroethyl]-N-methyl-1,1-dioxo-1λ^6-thiane-4-carboxamide]	6.46	–	6.42
CN(C(=O)C1CCOCC1)[C@@H](c1ccc(N2CCCc3c2cnc2cc(Cl)nn32)cc1)C(F)(F)F [CPD0021574, N-[(1S)-1-(4-{4-chloro-2,3,7,10-tetraazatricyclo[7.4.0.0^2,6]trideca-1(9),3,5,7-tetraen-10-yl}phenyl)-2,2,2-trifluoroethyl]-N-methyloxane-4-carboxamide]	6.91	6.92	–
CN(C(=O)C1CCCS(=O)(=O)C1)[C@@H](c1ccc(N2CCCc3c2cnc2cc(Cl)nn32)cc1)C(F)(F)F (stereo partly drawn) [CPD0021571, N-[(1S)-1-(4-{4-chloro-2,3,7,10-tetraazatricyclo[7.4.0.0^2,6]trideca-1(9),3,5,7-tetraen-10-yl}phenyl)-2,2,2-trifluoroethyl]-N-methyl-1,1-dioxo-1λ^6-thiane-3-carboxamide]	6.61	6.48	–
Cc1scnc1C(=O)N(C)[C@@H](c1ccc(N2CCCc3c2cnc2cc(Cl)nn32)cc1)C(F)(F)F [CPD0019353, N-[(1S)-1-(4-{4-chloro-2,3,7,10-tetraazatricyclo[7.4.0.0^2,6]trideca-1(9),3,5,7-tetraen-10-yl}phenyl)-2,2,2-trifluoroethyl]-N,5-dimethyl-1,3-thiazole-4-carboxamide]	6.24	6.57	–
CN1CCN(CC(=O)N(C)[C@@H](c2ccc(N3CCCc4c3cnc3cc(Cl)nn43)cc2)C(F)(F)F)CC1 [CPD0021746, N-[(1S)-1-(4-{4-chloro-2,3,7,10-tetraazatricyclo[7.4.0.0^2,6]trideca-1(9),3,5,7-tetraen-10-yl}phenyl)-2,2,2-trifluoroethyl]-N-methyl-2-(4-methylpiperazin-1-yl)acetamide]	6.28	6.33	–
Cc1ncsc1C(=O)N(C)[C@@H](c1ccc(N2CCCc3c2cnc2cc(Cl)nn32)cc1)C(F)(F)F [CPD0019351, N-[(1S)-1-(4-{4-chloro-2,3,7,10-tetraazatricyclo[7.4.0.0^2,6]trideca-1(9),3,5,7-tetraen-10-yl}phenyl)-2,2,2-trifluoroethyl]-N,4-dimethyl-1,3-thiazole-5-carboxamide]	6.56	6.82	–
CN(C(=O)[C@H]1CC12CCS(=O)(=O)CC2)[C@@H](c1ccc(N2CCCc3c2cnc2cc(Cl)nn32)cc1)C(F)(F)F (relative stereo) [CPD0073922, (1rel-S)-N-[(1S)-1-(4-{4-chloro-2,3,7,10-tetraazatricyclo[7.4.0.0^2,6]trideca-1(9),3,5,7-tetraen-10-yl}phenyl)-2,2,2-trifluoroethyl]-N-methyl-6,6-dioxo-6λ^6-thiaspiro[2.5]octane-1-carboxamide]	6.76	6.00	–
CN(C(=O)[C@H]1C[C@@H](S(C)(=O)=O)C1)[C@@H](c1ccc(N2CCCc3c2cnc2cc(Cl)nn32)cc1)C(F)(F)F [CPD0073502, cis-N-[(1S)-1-(4-{4-chloro-2,3,7,10-tetraazatricyclo[7.4.0.0^2,6]trideca-1(9),3,5,7-tetraen-10-yl}phenyl)-2,2,2-trifluoroethyl]-3-methanesulfonyl-N-methylcyclobutane-1-carboxamide]	7.21	6.98	–
CN(C(=O)[C@H]1CC[C@H](C(=O)O)CC1)[C@@H](c1ccc(N2CCCc3c2cnc2cc(Cl)nn32)cc1)C(F)(F)F [CPD0072442, (1r,4r)-4-{[(1S)-1-(4-{4-chloro-2,3,7,10-tetraazatricyclo[7.4.0.0^2,6]trideca-1(9),3,5,7-tetraen-10-yl}phenyl)-2,2,2-trifluoroethyl](methyl)carbamoyl}cyclohexane-1-carboxylic acid]	7.37	6.52	–
O=C(N[C@@H](c1ccc(N2CCCc3c2cnc2cc(Cl)nn32)cc1)C(F)(F)F)C1CCS(=O)(=O)CC1 [CPD0021755, N-[(1S)-1-(4-{4-chloro-2,3,7,10-tetraazatricyclo[7.4.0.0^2,6]trideca-1(9),3,5,7-tetraen-10-yl}phenyl)-2,2,2-trifluoroethyl]-1,1-dioxo-1λ^e-thiane-4-carboxamide]	6.36	6.07	–
CN1CC[C@H](C(=O)N(C)[C@@H](c2ccc(N3CCCc4c3cnc3cc(Cl)nn43)cc2)C(F)(F)F)CC1=O (relative stereo) [CPD0073141, (4rel-S)-N-[(1S)-1-(4-{4-chloro-2,3,7,10-tetraazatricyclo[7.4.0.0^2,6]trideca-1(9),3,5,7-tetraen-10-yl}phenyl)-2,2,2-trifluoroethyl]-N,1-dimethyl-2-oxopiperidine-4-carboxamide]	7.17	6.71	–
CN(C(=O)CC1CCNC1)[C@@H](c1ccc(N2CCCc3c2cnc2cc(Cl)nn32)cc1)C(F)(F)F (stereo partly drawn) [CPD0021849, N-[(1S)-1-(4-{4-chloro-2,3,7,10-tetraazatricyclo[7.4.0.0^2,6]trideca-1(9),3,5,7-tetraen-10-yl}phenyl)-2,2,2-trifluoroethyl]-N-methyl-2-(pyrrolidin-3-yl)acetamide]	6.69	6.25	–
CN(C(=O)[C@@H]1CS(=O)(=O)CC12CC2)[C@@H](c1ccc(N2CCCc3c2cnc2cc(Cl)nn32)cc1)C(F)(F)F (relative stereo) [CPD0073968, (7rel-R)-N-[(1S)-1-(4-{4-chloro-2,3,7,10-tetraazatricyclo[7.4.0.0^2,6]trideca-1(9),3,5,7-tetraen-10-yl}phenyl)-2,2,2-trifluoroethyl]-N-methyl-5,5-dioxo-5λ^6-thiaspiro[2.4]heptane-7-carboxamide]	7.00	6.70	–
CN(C(=O)[C@H]1CCN(C(=O)CO)C1)[C@@H](c1ccc(N2CCCc3c2cnc2cc(Cl)nn32)cc1)C(F)(F)F (relative stereo) [CPD0073977, (3rel-S)—N-[(1S)-1-(4-{4-chloro-2,3,7,10-tetraazatricyclo[7.4.0.0^2,6]trideca-1(9),3,5,7-tetraen-10-yl}phenyl)-2,2,2-trifluoroethyl]-1-(2-hydroxyacetyl)-N-methylpyrrolidine-3-carboxamide]	7.41	6.94	–
